Measurements from the Kinase Knowledgebase extract (Sharma et al. 2016).

Columns and labels:
MAPK14 (human) = MAPK14 (human) (UniProt Q16539); assay: Inhibition of LPS-Induced TNF-alpha Production in THP-1 Cells; conditions: thp1
MAPK14 = MAPK14 (UniProt Q16539); assay: Enzyme Assay
MAPK14, sequence (Q16539 whole entry, looked up): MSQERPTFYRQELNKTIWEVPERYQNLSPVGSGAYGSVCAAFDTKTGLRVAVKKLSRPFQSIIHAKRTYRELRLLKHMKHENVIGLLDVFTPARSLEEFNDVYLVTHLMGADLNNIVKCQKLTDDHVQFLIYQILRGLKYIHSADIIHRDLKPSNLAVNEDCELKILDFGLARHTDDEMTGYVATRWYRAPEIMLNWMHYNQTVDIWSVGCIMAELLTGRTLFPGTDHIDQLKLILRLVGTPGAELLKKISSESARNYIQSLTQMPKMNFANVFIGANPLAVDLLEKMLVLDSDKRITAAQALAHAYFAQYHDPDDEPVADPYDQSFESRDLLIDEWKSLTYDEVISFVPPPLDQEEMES

MAPK14 (human), sequence (Q16539 whole entry, looked up): as above

Structure (SMILES)	IC50 (MAPK14 (human))	IC50 (MAPK14)
O=C(Nc1ccc(Cl)c(COc2cnccn2)c1)c1cc(F)cc(N2CCOCC2)c1	0.21 µM	< 2 µM
O=C(Nc1ccc(Cl)c(COc2ccc(NCCO)nc2)c1)c1cc(F)cc(N2CCOCC2)c1	0.97 µM	< 2 µM
CC(Nc1cnc(OCc2c(Cl)cccc2Cl)cn1)c1ccccc1 (stereo not given)	–	< 20 µM
CC(C)c1nnc(NC(=O)Nc2ccc(F)c(COc3cnccn3)c2)s1	–	< 20 µM
O=C(Nc1ccc(Cl)c(COc2cccnc2)c1)c1cccc(F)c1	–	< 200 µM
CC(C)(C)c1cc(NC(=O)Nc2ccc(Cl)c(COc3cccnc3)c2)n(-c2ccccc2)n1	–	< 2 µM
COc1ccccc1COc1cccnc1N	–	< 1000 µM
O=C(Nc1ccc(F)c(COc2cnccn2)c1)Nc1cc(-c2ccccc2)nn1-c1ccccc1	–	< 2 µM
Clc1cccc(Cl)c1COc1ccc(N2CCOCC2)nc1	–	< 1000 µM
O=C(Nc1ccc(Cl)c(COc2cccnc2)c1)c1cccc(Cl)c1	–	< 20 µM
CC(C)(C)c1ccccc1NC(=O)Nc1ccc(F)c(COc2cccnc2)c1	–	< 20 µM
Nc1ncccc1OCc1ccc(Cl)c(F)c1	–	< 200 µM
OCCNc1ccc(OCc2ccccc2)cn1	–	< 200 µM
CCN(CC)C(=O)Nc1cnc(OCc2c(Cl)cccc2Cl)cn1	–	< 200 µM
Nc1ccc(Cl)c(COc2cnccn2)c1	–	< 1000 µM
CC(C)(C)c1cc(C(=O)Nc2ccc(F)c(COc3cnccn3)c2)cc(C(C)(C)C)c1	–	< 2 µM
Nc1nccnc1OCc1c(Cl)cccc1Cl	–	< 1000 µM
Nc1ncccc1OCc1ccc(F)cc1Cl	–	< 1000 µM
Clc1cnc(OCc2c(Cl)cccc2Cl)cn1	–	< 1000 µM

Structure (SMILES)	IC50 (MAPK14 (human))	IC50 (MAPK14)
O=C(Nc1ccc(Cl)c(COc2cccnc2)c1)Oc1ccccc1	–	< 20 µM
Nc1ncccc1OCc1cc(NC(=O)c2ccccc2)ccc1Cl	–	< 20 µM
Cc1noc(-c2ccccc2)c1C(=O)Nc1ccc(F)c(COc2cnccn2)c1	–	< 200 µM
OCCNc1cnc(OCc2c(Cl)cccc2Cl)cn1	–	< 200 µM
O=C(Nc1ccc(F)c(COc2cnccn2)c1)Nc1nnc(-c2ccccc2)s1	–	< 200 µM
Nc1ncccc1OCc1ccc(F)cc1F	–	< 1000 µM
CC(C)(C)c1cc(NC(=O)Nc2ccc(F)c(COc3cnccn3)c2)n(-c2nc3ccccc3s2)n1	–	< 20 µM
O=C1c2ccccc2C(O)N1c1ccc(Cl)c(COc2cccnc2)c1 (stereo not given)	–	< 200 µM
CC(C)(C)c1cc(NC(=O)Nc2ccc(F)c(COc3cnccn3)c2)n(-c2ccncc2)n1	–	< 2 µM
O=C(Nc1ccc(F)c(COc2cccnc2)c1)c1cc(F)cc(N2CCOCC2)c1	–	< 2 µM
O=C(Nc1ccc(Cl)c(COc2cnccn2)c1)c1ccnc(N2CCOCC2)c1	–	< 2 µM
O=C(Nc1ccc(F)c(COc2cnccn2)c1)Nc1cc(C2CCCO2)nn1-c1ccc(F)cc1 (stereo not given)	–	< 2 µM
O=C(Nc1ccc(F)c(COc2cnccn2)c1)c1ccc(-c2ccccc2)cc1	–	< 200 µM
C=CS(=O)(=O)Nc1cnc(OCc2c(Cl)cccc2Cl)cn1	–	< 200 µM
c1cncc(OCc2cccc3ccccc23)c1	–	< 1000 µM
NC(=O)Nc1ccc(Cl)c(COc2cccnc2)c1	–	< 20 µM
Cc1cc(C)c2nc(NC(=O)Nc3ccc(F)c(COc4cnccn4)c3)sc2c1	–	< 1000 µM
O=C(Nc1ccc(F)c(COc2cnccn2)c1)c1cccc(Oc2ccccc2)c1	–	< 2 µM
CC(CO)(CO)NC(=O)c1cnc(OCc2c(Cl)cccc2Cl)cn1	–	< 2 µM
